Test results as given in US7718768B2, “Biologically active peptide [sequence]” (CMS Peptides Patent Holding Company Limited, priority 2001, dated 2010).
Marks after values point to notes of the source that are not given here. No end group written: not given here.

System: Duck Hepatitis B Virus (DHBV)
Experiment: Chongqing duck hepatitis B model, serum DHBV DNA by dot-blot hybridization
Type: in vivo, Chongqing ducks
Settings: CMS001 50 μg/kg/day i.p., lamivudine 50 mg/kg/day oral

PTTKTYFPHF [CMS001]
Serum DHBV DNA level (Day 0 (before treatment), Mean ± Standard Deviation): 21 ± 18 10^3 units
Serum DHBV DNA level (Day 7 of treatment): 11 ± 13 10^3 units
Serum DHBV DNA level (Day 14 of treatment): 20 ± 18 10^3 units
Serum DHBV DNA level (Day 21 of treatment): 14 ± 14 10^3 units
Serum DHBV DNA level (Day 28 (end of 4 weeks treatment)): 5 ± 3* 10^3 units
Serum DHBV DNA level (Day 35 (one week after termination of treatment)): 18 ± 16 10^3 units
